{"source": "patent US5935591A", "about": "“Method for treatment of equine protozoal myeloencephalitis with thiazolides” (Romark Laboratories, L.C., priority 1998, dated 1999)", "key": {"Taenia pisiformis": {"system": "Taenia pisiformis", "details": "single oral dose; dogs; cited from earlier work"}, "Sarcocystis spp.": {"system": "Sarcocystis spp.", "test": "in vitro test system for activity against Sarcocystis spp.", "format": "cell-based", "details": "for activity in inhibiting the growth of the protozoa: in words"}, "[1]": {"system": "facultative and obligate anaerobic Gram positive and Gram negative bacteria", "details": "cited from earlier work"}, "Uncinaria stenocephala": {"system": "Uncinaria stenocephala", "details": "repeated doses; dogs; cited from earlier work"}, "[2]": {"system": "protozoan and helminthic pathogens", "details": "cited from earlier work"}, "[3]": {"system": "equine protozoal myeloencephalitis (Sarcocystis infection)", "test": "treatment of horses with nitazoxanide: symptoms of EPM", "format": "in vivo, horse", "method": "(§1) All dosages were administered in solid (tablet) form.\n(§2) This horse was positive for Sarcocystis infection in CSF and serum. […] The horse injured both hocks on day 12 by kicking the stall, resulting in edema of both rear limbs. […] On day 17 he was back to eating normally. Symptoms of EPM were gone by day 10 and have not returned.\n(§3) This horse was positive for Sarcocystis infection in serological testing for antibody, showing no symptoms of the disease.\n(§4) This horse was positive for Sarcocystis in serological testing for antibody, showing no symptoms of the disease."}, "Hymenolepis nana": {"system": "Hymenolepis nana", "details": "mice; cited from earlier work"}, "Stilesia globipunctata": {"system": "Stilesia globipunctata", "details": "single oral dose; sheep; cited from earlier work"}, "Thysanezia ovilla": {"system": "Thysanezia ovilla", "details": "single oral dose; sheep; cited from earlier work"}, "Trichuris vulpis": {"system": "Trichuris vulpis", "details": "repeated doses; dogs; cited from earlier work"}, "Moniezia expansa": {"system": "Moniezia expansa", "details": "single oral dose; sheep; cited from earlier work"}, "[4]": {"details": "cited from earlier work"}, "[5]": {"system": "Avitellina centripunctata", "details": "single oral dose; sheep; cited from earlier work"}, "Dipylidium caninum": {"system": "Dipylidium caninum", "details": "single oral dose; dogs; cited from earlier work"}, "Syphacia obvelata": {"system": "Syphacia obvelata", "details": "mice; cited from earlier work"}, "Taenia taeniaeformis": {"system": "Taenia taeniaeformis", "details": "single oral dose; cats; cited from earlier work"}, "[6]": {"test": "safety and tolerance of nitazoxanide in horses", "format": "in vivo, horse", "details": "for tolerance of the drug: oral", "method": "as §1, §2, §3, §4"}, "[7]": {"system": "Gram positive bacteria such as Staphylococcus aureus", "details": "cited from earlier work"}}, "note": "Where two headings read alike, the source gives them in different places.", "data": [{"smiles": "CC(=O)Oc1ccccc1C(=O)Nc1ncc([N+](=O)[O-])s1", "note": "[nitazoxanide, 2-(acetolyloxy)-N-(5-nitro 2-thiazoly) benzamide]", "values": [{"measurement": "cestocidal effect", "setting": "Taenia pisiformis", "result": "cestocidal effect"}, {"measurement": "50% inhibitory concentration (growth of the protozoa)", "setting": "Sarcocystis spp.", "result": "approximately 0.475 μg/ml"}, {"measurement": "activity in inhibiting the growth of the protozoa", "setting": "Sarcocystis spp.", "result": "highly active"}, {"measurement": "antibacterial effect", "setting": "[1]", "result": "effective"}, {"measurement": "efficacy against gastrointestinal nematodes", "setting": "Uncinaria stenocephala", "result": "also observed"}, {"measurement": "activity against protozoan and helminthic pathogens", "setting": "[2]", "result": "activity against a number of protozoan and helminthic pathogens"}, {"measurement": "day by which symptoms of EPM were gone", "setting": "[3]; Horse #1, Sarcocystis positive in CSF and serum, oral tablet, 50 mg/kg days 1-6, 100 mg/kg days 9-16, 150 mg/kg days 18-25", "result": "≤ 10", "unit": "days"}, {"measurement": "reoccurrence of symptoms", "setting": "[3]; Horse #1, monitoring continued for 23 days", "result": "no reoccurrence of symptoms"}, {"measurement": "symptoms at the end of the trial and during the 30-day period after the trial", "setting": "[3]; five horses, oral tablets, 50-150 mg/kg", "result": "absence of any symptoms"}, {"measurement": "single dose activity", "setting": "Hymenolepis nana", "result": "activity"}, {"measurement": "cestocidal effect", "setting": "Stilesia globipunctata", "result": "cestocidal effect"}, {"measurement": "cestocidal effect", "setting": "Thysanezia ovilla", "result": "cestocidal effect"}, {"measurement": "efficacy against gastrointestinal nematodes", "setting": "Trichuris vulpis", "result": "also observed"}, {"measurement": "cestocidal effect", "setting": "Moniezia expansa", "result": "cestocidal effect"}, {"measurement": "solubility", "setting": "[4]; \"either\" (so in the source)", "result": "very poorly soluble"}, {"measurement": "solubility", "setting": "[4]; acetic acid", "result": "poorly soluble"}, {"measurement": "solubility", "setting": "[4]; acetone", "result": "fairly soluble"}, {"measurement": "solubility", "setting": "[4]; chloroform", "result": "poorly soluble"}, {"measurement": "solubility", "setting": "[4]; dioxane", "result": "fairly soluble"}, {"measurement": "solubility", "setting": "[4]; ethanol", "result": "poorly soluble"}, {"measurement": "solubility", "setting": "[4]; methyl benzene", "result": "very poorly soluble"}, {"measurement": "solubility", "setting": "[4]; pyridine", "result": "easily soluble"}, {"measurement": "solubility", "setting": "[4]; water", "result": "very poorly soluble"}, {"measurement": "cestocidal effect", "setting": "[5]", "result": "cestocidal effect"}, {"measurement": "cestocidal effect", "setting": "Dipylidium caninum", "result": "cestocidal effect"}, {"measurement": "effect of repeated doses", "setting": "Syphacia obvelata", "result": "effect"}, {"measurement": "cestocidal effect", "setting": "Taenia taeniaeformis", "result": "cestocidal effect"}, {"measurement": "eating of feed", "setting": "[6]; Horse #1, days 15 and 16 (100 mg/kg days 9-16), back to eating normally on day 17", "result": "slow to finish eating feed"}, {"measurement": "tolerance of the drug", "setting": "[6]; Horse #2, 75 mg/kg days 1-6, 100 mg/kg days 9-16, 150 mg/kg days 18-25", "result": "tolerated the drug well at all dose levels"}, {"measurement": "tolerance of the drug", "setting": "[6]; Horse #3, 75 mg/kg days 1-6, 100 mg/kg days 9-16, 150 mg/kg days 18-27", "result": "tolerated the drug well at all dose levels"}, {"measurement": "tolerance of the drug", "setting": "[6]; Horse #4, 75 mg/kg days 1-6, 100 mg/kg days 9-16, 150 mg/kg days 18-27", "result": "tolerated the drug well at all dose levels"}, {"measurement": "tolerance of the drug", "setting": "[6]; Horse #5, 75 mg/kg days 1-6, 100 mg/kg days 9-16, 150 mg/kg days 18-27", "result": "tolerated the drug well at all dose levels"}, {"measurement": "signs of toxicity", "setting": "[6]; all five horses", "result": "no signs of toxicity"}, {"measurement": "antibacterial effect", "setting": "[7]", "result": "effective"}]}, {"smiles": "O=C(Nc1ncc([N+](=O)[O-])s1)c1ccccc1O", "note": "[tizoxanide]", "values": [{"measurement": "activity in inhibiting the growth of the protozoa", "setting": "Sarcocystis spp.", "result": "highly active"}, {"measurement": "IC50", "setting": "Sarcocystis spp.; read-out: 50% inhibitory concentration (growth of the protozoa)", "result": "~0.475", "unit": "µg/mL"}]}]}
